Measured values reported in US8236964B2, “Thiazolidine derivatives as orexin receptor antagonists” (Actelion Pharmaceuticals Ltd., priority 2007, dated 2012).

Assays:
human orexin-2 receptor = target: T1, human orexin-2 receptor (Homo sapiens, UniProt O43614); assay: Intracellular calcium measurements (FLIPR), orexin receptor antagonistic activity, OX2; format: cell-based; conditions: CHO cells expressing the human orexin-2 receptor; 10 nM orexin-A as agonist
T1 construct: expressed in transfected cells; host or cells: CHO cells (G418 selection)
T1 sequence (O43614 1-444): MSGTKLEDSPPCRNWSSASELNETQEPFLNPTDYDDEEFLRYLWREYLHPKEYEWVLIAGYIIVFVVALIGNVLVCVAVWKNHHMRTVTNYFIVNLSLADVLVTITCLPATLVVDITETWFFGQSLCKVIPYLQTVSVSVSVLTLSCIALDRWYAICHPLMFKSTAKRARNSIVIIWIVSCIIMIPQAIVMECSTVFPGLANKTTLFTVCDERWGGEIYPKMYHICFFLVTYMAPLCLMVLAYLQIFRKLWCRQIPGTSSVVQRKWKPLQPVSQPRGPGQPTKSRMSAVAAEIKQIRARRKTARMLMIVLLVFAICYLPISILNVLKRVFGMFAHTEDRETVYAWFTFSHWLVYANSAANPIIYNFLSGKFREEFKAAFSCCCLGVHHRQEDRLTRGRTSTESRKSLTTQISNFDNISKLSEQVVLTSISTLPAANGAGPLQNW
Protocol: (§1) The orexin receptor antagonistic activity of the compounds of formula (I) is determined in accordance with the following experimental method.
(§2) Intracellular Calcium Measurements:
(§3) Chinese hamster ovary (CHO) cells expressing the human orexin-1 receptor and the human orexin-2 receptor, respectively, are grown in culture medium (Ham F-12 with L-Glutamine) containing 300 μg/ml G418, 100 U/ml penicillin, 100 μg/ml streptomycin and 10% inactivated fetal calf serum (FCS). The cells are seeded at 80,000 cells/well into 96-well black clear bottom sterile plates (Costar) which have been precoated with 1% gelatine in Hanks' Balanced Salt Solution (HBSS). All reagents are from Gibco BRL. The seeded plates are incubated overnight at 37° C. in 5% CO2.
(§4) Human orexin-A as an agonist is prepared as 1 mM stock solution in methanol:water (1:1), diluted in HBSS containing 0.1% bovine serum albumin (BSA) and 2 mM HEPES for use in the assay at a final concentration of 10 nM.
(§5) Antagonists are prepared as 10 mM stock solution in DMSO, then diluted in 96-well plates, first in DMSO, then in HBSS containing 0.1% bovine serum albumin (BSA) and 2 mM HEPES.
(§6) On the day of the assay, 100 μl of loading medium (HBSS containing 1% FCS, 2 mM HEPES, 5 mM probenecid (Sigma) and 3 μM of the fluorescent calcium indicator fluo-3 AM (1 mM stock solution in DMSO with 10% pluronic acid) (Molecular Probes) is added to each well.
(§7) The 96-well plates are incubated for 60 min at 37° C. in 5% CO2. The loading solution is then aspirated and cells are washed 3 times with 200 μl HBSS containing 2.5 mM probenecid, 0.1% BSA, 2 mM HEPES. 100 μl of that same buffer is left in each well.
(§8) Within the Fluorescent Imaging Plate Reader (FLIPR, Molecular Devices), antagonists are added to the plate in a volume of 50 μl, incubated for 20 min and finally 100 μl of agonist is added. Fluorescence is measured for each well at 1 second intervals, and the height of each fluorescence peak is compared to the height of the fluorescence peak induced by 10 nM orexin-A with buffer in place of antagonist. For each antagonist, IC50 value (the concentration of compound needed to inhibit 50% of the agonistic response) is determined. Antagonistic activities of compounds are in the nanomolar range below 1000 nM with respect to the OX1 and/or the OX2 receptor.

human orexin-1 receptor = target: T2, human orexin-1 receptor (Homo sapiens, UniProt O43613); assay: Intracellular calcium measurements (FLIPR), orexin receptor antagonistic activity, OX1; format: cell-based; conditions: CHO cells expressing the human orexin-1 receptor; 10 nM orexin-A as agonist
T2 construct: expressed in transfected cells; host or cells: CHO cells (G418 selection)
T2 sequence (O43613 1-425): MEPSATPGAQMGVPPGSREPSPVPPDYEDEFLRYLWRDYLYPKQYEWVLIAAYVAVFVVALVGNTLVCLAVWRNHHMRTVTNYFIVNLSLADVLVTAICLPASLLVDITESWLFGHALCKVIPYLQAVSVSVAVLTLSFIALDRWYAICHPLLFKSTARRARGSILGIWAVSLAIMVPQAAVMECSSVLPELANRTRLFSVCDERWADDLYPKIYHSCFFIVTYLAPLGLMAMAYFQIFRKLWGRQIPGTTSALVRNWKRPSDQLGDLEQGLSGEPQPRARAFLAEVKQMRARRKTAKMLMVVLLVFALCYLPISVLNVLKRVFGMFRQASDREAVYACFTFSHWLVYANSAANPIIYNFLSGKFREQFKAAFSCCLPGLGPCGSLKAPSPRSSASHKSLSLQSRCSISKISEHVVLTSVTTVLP
Protocol: as §1, §2, §3, §4, §5, §6, §7
as §8, with “determined.” for “determined. Antagonistic activities of compounds are in the nanomolar range below 1000 nM with respect to the OX1 and/or the OX2 receptor.”

Compound	IC50 (human orexin-2 receptor) [nM]	IC50 (human orexin-1 receptor) [nM]
Cc1nc(C(=O)N2CSC[C@H]2CNC(=O)c2nn(C)c3ccccc23)c(-c2ccc(F)cc2)s1 [Example 4, 1-Methyl-1H-indazole-3-carboxylic acid {(R)-3-[5-(4-fluoro-phenyl)-2-methyl-thiazole-4-carbonyl]-thiazolidin-4-ylmethyl}-amide]	8	
COc1cccc(-c2sc(C)nc2C(=O)N2CSC[C@H]2CNC(=O)c2cccc3occc23)c1 [Example 11, Benzofuran-4-carboxylic acid {(R)-3-[5-(3-methoxy-phenyl)-2-methyl-thiazole-4-carbonyl]-thiazolidin-4-ylmethyl}-amide]	1	1
Cc1nc(C(=O)N2CSC[C@H]2CNC(=O)c2c(C)nc3sccn23)c(-c2cccc(F)c2)s1 [Example 31, 6-Methyl-imidazo[2,1-b]thiazole-5-carboxylic acid {(R)-3-[5-(3-fluoro-phenyl)-2-methyl-thiazole-4-carbonyl]-thiazolidin-4-ylmethyl}-amide]	7	6
Cc1nc(C(=O)N2CSC[C@H]2CNC(=O)c2c(C)nc3sccn23)c(-c2cccc(C(F)(F)F)c2)o1 [Example 38, 6-Methyl-imidazo[2,1-b]thiazole-5-carboxylic acid {(R)-3-[2-methyl-5-(3-trifluoromethyl-phenyl)-oxazole-4-carbonyl]-thiazolidin-4-ylmethyl}-amide]	80	59
Cc1ccc(-c2nc(C)sc2C(=O)N2CSC[C@H]2CNC(=O)c2c(C)nc3sccn23)cc1 [Example 41, 6-Methyl-imidazo[2,1-b]thiazole-5-carboxylic acid [(R)-3-(2-methyl-4-p-tolyl-thiazole-5-carbonyl)-thiazolidin-4-ylmethyl]-amide]	11	7
O=C(NC[C@@H]1CSCN1C(=O)c1ccccc1-c1ccccc1)c1cccc2occc12 [Example 79, Benzofuran-4-carboxylic acid [(R)-3-(biphenyl-2-carbonyl)-thiazolidin-4-ylmethyl]-amide]	9	23

Next, values leading:

IC50 (human orexin-2 receptor) [nM]	IC50 (human orexin-1 receptor) [nM]	Compound
6	6	Cn1nc(C(=O)NC[C@@H]2CSCN2C(=O)c2ccccc2-c2ccccc2)c2ccccc21 [Example 83, 1-Methyl-1H-indazole-3-carboxylic acid [(R)-3-(biphenyl-2-carbonyl)-thiazolidin-4-ylmethyl]-amide]
22	5950	Cc1nc(C(=O)N2CSC[C@H]2CNC(=O)c2cc3ccccc3s2)c(-c2ccc(F)cc2)s1 [Example 91, Benzo[b]thiophene-2-carboxylic acid {(R)-3-[5-(4-fluoro-phenyl)-2-methyl-thiazole-4-carbonyl]-thiazolidin-4-ylmethyl}-amide]
804	99	Cc1nc(C(=O)N2CSC[C@H]2CNC(=O)c2c(C)nc3ccccn23)c(-c2ccc(F)cc2)s1 [Example 110, 2-Methyl-imidazo[1,2-a]pyridine-3-carboxylic acid {(R)-3-[5-(4-fluoro-phenyl)-2-methyl-thiazole-4-carbonyl]-thiazolidin-4-ylmethyl}-amide]
17	6	Cc1nc(C(=O)N2CSC[C@H]2CNC(=O)c2cccc3c2NCCO3)c(-c2ccc(F)cc2)s1 [Example 112, 3,4-Dihydro-2H-benzo[1,4]oxazine-5-carboxylic acid {(R)-3-[5-(4-fluoro-phenyl)-2-methyl-thiazole-4-carbonyl]-thiazolidin-4-ylmethyl}-amide]
3	2	Cc1cccc(-c2sc(C)nc2C(=O)N2CSC[C@H]2CNC(=O)c2cccc3ncoc23)c1 [Example 119, Benzooxazole-7-carboxylic acid [(R)-3-(2-methyl-5-m-tolyl-thiazole-4-carbonyl)-thiazolidin-4-ylmethyl]-amide]
1	2	Cc1cccc(-c2sc(C)nc2C(=O)N2CSC[C@H]2CNC(=O)c2ccc(F)c3occc23)c1 [Example 127, 7-Fluoro-benzofuran-4-carboxylic acid [(R)-3-(2-methyl-5-m-tolyl-thiazole-4-carbonyl)-thiazolidin-4-ylmethyl]-amide]
6	5	Cc1nc(C(=O)N2CSC[C@H]2CNC(=O)c2c(C)cn3ccsc23)c(-c2ccc(F)cc2)s1 [Example 132, 6-Methyl-pyrrolo[2,1-b]thiazole-7-carboxylic acid {(R)-3-[5-(4-fluoro-phenyl)-2-methyl-thiazole-4-carbonyl]-thiazolidin-4-ylmethyl}-amide]
3	8	COC1Cc2c(C(=O)NC[C@@H]3CSCN3C(=O)c3nc(C)sc3-c3cccc(C)c3)ccc(Cl)c2O1 (stereo partly drawn) [Example 133, 7-Chloro-2-methoxy-2,3-dihydro-benzofuran-4-carboxylic acid [(R)-3-(2-methyl-5-m-tolyl-thiazole-4-carbonyl)-thiazolidin-4-ylmethyl]-amide]
4	10	Cc1cccc(-c2sc(C)nc2C(=O)N2CSC[C@H]2CNC(=O)c2ccc(C(F)(F)F)c3occc23)c1 [Example 141, 7-Trifluoromethyl-benzofuran-4-carboxylic acid [(R)-3-(2-methyl-5-m-tolyl-thiazole-4-carbonyl)-thiazolidin-4-ylmethyl]-amide]
10	9	Cc1cccc(-c2sc(C)nc2C(=O)N2CSC[C@H]2CNC(=O)c2cccc3oc(CO)cc23)c1 [Example 147, 2-Hydroxymethyl-benzofuran-4-carboxylic acid [(R)-3-(2-methyl-5-m-tolyl-thiazole-4-carbonyl)-thiazolidin-4-ylmethyl]-amide]
